The results in this text go back to ChEMBL document CHEMBL5390233, “Design, synthesis and biological evaluation of 2-aminopyrimidine derivatives as potent FLT3 inhibitors” (Bioorg Med Chem Lett, 2023).

Data set [1] has as its target T1, Receptor-type tyrosine-protein kinase FLT3 (Homo sapiens, UniProt P36888).
T1 sequence (P36888 whole entry): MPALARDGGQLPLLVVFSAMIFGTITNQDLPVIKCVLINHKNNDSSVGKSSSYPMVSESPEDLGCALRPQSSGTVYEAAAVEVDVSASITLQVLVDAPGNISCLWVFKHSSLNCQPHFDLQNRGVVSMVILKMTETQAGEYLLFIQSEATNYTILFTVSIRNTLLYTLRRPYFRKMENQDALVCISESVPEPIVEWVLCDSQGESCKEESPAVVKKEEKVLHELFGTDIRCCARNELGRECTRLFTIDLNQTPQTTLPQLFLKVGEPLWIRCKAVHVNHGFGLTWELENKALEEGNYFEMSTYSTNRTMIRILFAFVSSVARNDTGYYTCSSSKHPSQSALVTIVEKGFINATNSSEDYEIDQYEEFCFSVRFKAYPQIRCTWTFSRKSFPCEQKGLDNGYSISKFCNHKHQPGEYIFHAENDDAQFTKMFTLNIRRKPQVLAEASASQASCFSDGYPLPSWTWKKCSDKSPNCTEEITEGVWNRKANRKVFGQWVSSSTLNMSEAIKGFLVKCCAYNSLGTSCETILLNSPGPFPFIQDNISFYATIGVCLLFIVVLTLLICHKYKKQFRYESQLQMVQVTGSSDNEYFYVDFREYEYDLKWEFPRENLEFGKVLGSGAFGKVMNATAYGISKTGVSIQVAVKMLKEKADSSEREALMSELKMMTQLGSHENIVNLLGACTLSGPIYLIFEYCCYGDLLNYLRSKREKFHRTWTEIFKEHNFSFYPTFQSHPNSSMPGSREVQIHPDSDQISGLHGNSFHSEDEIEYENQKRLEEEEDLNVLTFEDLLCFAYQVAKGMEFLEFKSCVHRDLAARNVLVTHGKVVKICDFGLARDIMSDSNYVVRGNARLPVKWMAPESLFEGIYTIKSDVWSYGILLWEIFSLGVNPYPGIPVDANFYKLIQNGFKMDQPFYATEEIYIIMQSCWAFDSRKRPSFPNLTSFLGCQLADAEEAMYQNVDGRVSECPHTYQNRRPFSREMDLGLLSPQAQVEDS
Kind of data set: Inhibition of wild type FLT3 (unknown origin).

For data set [2], the system named is BaF3. Kind of data set: Antiproliferative activity against mouse BaF3 cells harboring FLT3-D835F mutant assessed as inhibition of cell growth. The format is functional, cell-based.
Another data set concerns HeLa. Kind of data set: Antiproliferative activity against human HeLa cells assessed as inhibition of cell growth. Format: functional, cell-based.
A further data set concerns MCF7. Nature of the data set: Antiproliferative activity against human MCF7 cells assessed as inhibition of cell growth. The format is functional, cell-based.
The subject of data set [3] is BaF3. Kind of data set: Antiproliferative activity against mouse BaF3 cells harboring FLT3-F691L mutant assessed as inhibition of cell growth. Format: functional, cell-based.
The subject of the next data set is MM1.S. Kind of data set: Antiproliferative activity against human MM1.S cells assessed as inhibition of cell growth. The format is functional, cell-based.
Data set [4] relates to BaF3. Kind of data set: Antiproliferative activity against mouse BaF3 cells harboring FLT3-ITD-D835Y mutant assessed as inhibition of cell growth. The format is functional, cell-based.
The subject of data set [5] is BaF3. Kind of data set: Antiproliferative activity against mouse BaF3 cells harboring FLT3-ITD mutant assessed as inhibition of cell growth. The format is functional, cell-based.
Data set [6] addresses Receptor-type tyrosine-protein kinase FLT3 (Homo sapiens, UniProt P36888, D835Y). Kind of data set: Inhibition of FLT3 D835Y mutant (unknown origin).
For a further data set, the system named is MV4-11. Kind of data set: Antiproliferative activity against human MV4-11 cells assessed as inhibition of cell growth. The format is functional, cell-based.
Data set [7] concerns BaF3. Kind of data set: Antiproliferative activity against mouse BaF3 cells harboring FLT3-D835V mutant assessed as inhibition of cell growth. Format: functional, cell-based.
Data set [8] can be described thus: Antiproliferative activity against human PBMC cells assessed as inhibition of cell growth. The format is toxicity, cell-based.
The subject of a further data set is MOLM-13. Nature of the data set: Antiproliferative activity against human MOLM-13 cells assessed as inhibition of cell growth. The format is functional, cell-based.

Each structure is given as a SMILES string. pIC50: −log10 of the molar value.

On to `CC1(COc2ccc(Nc3ncc(C(F)(F)F)c(N[C@H]4CC[C@@H](N)CC4)n3)cc2)COC1`, for which the pIC50 (commonly the IC50 on a negative log10 scale, so that one unit is a factor of ten) in data set [1] was 8.13; in the data set on BaF3 [2] (baf3), 9.03; in the data set with HeLa (hela) it was 5.24; with MCF7 (mcf7), 5.30; in the data set on BaF3 [3] (baf3), 8.38; in the data set with MM1.S (mm1.s), 5.65. Besides, the pIC50 in the data set on BaF3 [4] (baf3) is 9.02; in the data set with BaF3 [5] (baf3), 9.04; in [6] it was 8.04; with MV4-11 (mv4-11), 9.08; in the data set with BaF3 [7] (baf3) it was 9.01; in data set [8], 5.10. Besides, the negative logarithm of the IC50 (pIC50) with MOLM-13 is 7.98.

Consider `CC1(COc2ccc(Nc3ncc(C(F)(F)F)c(NC4CCNCC4)n3)cc2)COC1`, for which the results for the pIC50 in [1] and in data set [6] were 7.54 and 7.38, respectively.

For `CC1(COc2ccc(Nc3ncc(C(F)(F)F)c(N4CCC(N)CC4)n3)cc2)COC1`, the pIC50 was 6.86 in data set [1] and 6.46 in data set [6].

As to `CC1(COc2ccc(Nc3ncc(C(F)(F)F)c(N4CCOCC4)n3)cc2)COC1`, the negative logarithm of the IC50 (pIC50) was 6.47 in data set [1] and 6.42 in data set [6].

Turning to `CC1(COc2ccc(Nc3ncc(C(F)(F)F)c(N4CCC(O)CC4)n3)cc2)COC1`, the values for the pIC50 in data set [1] and in data set [6] were 7.07 and 6.85, respectively.

Consider `CN1CCN(c2nc(Nc3ccc(OCC4(C)COC4)cc3)ncc2C(F)(F)F)CC1`, for which the pIC50 was 6.47 in data set [1] and 6.16 in [6].

Regarding `CC1(COc2ccc(Nc3ncc(C(F)(F)F)c(N[C@H]4CC[C@H](O)CC4)n3)cc2)COC1`, the pIC50 in data set [1] was 7.53; in data set [6], 7.19; in the data set on MV4-11 (Homo sapiens, MV4-11), 8.12.

Turning to `CC1(COc2cccc(Nc3ncc(C(F)(F)F)c(NC4CCNCC4)n3)c2)COC1`, the pIC50 in data set [1] is 7.49; in [6] it was 7.16.

Consider `CC1(COc2ccc(Nc3ncc(C(F)(F)F)c(N4CCNCC4)n3)cc2)COC1`, for which the pIC50 is 6.64 in data set [1] and 6.46 in data set [6].

With `CC1(COc2ccc(Nc3ncc(C(F)(F)F)c(N[C@@H]4CCCNC4)n3)cc2)COC1`, the pIC50 in data set [1] is 7.85; in [6], 7.59; in the data set with MV4-11 (mv4-11), 8.01.

Consider `CC1(COc2ccc(Nc3ncc(C(F)(F)F)c(N[C@H]4CC[C@@H](O)CC4)n3)cc2)COC1`, for which the pIC50 in data set [1] is 8.02; in [6], 8.01; with MV4-11 (Homo sapiens, MV4-11), 7.37.

For `CC1(COc2cccc(Nc3ncc(C(F)(F)F)c(N[C@@H]4CCCNC4)n3)c2)COC1`, the pIC50 in data set [1] was 7.78; in data set [6] it was 7.61; with MV4-11 (mv4-11), 7.76.

Turning to `CC1(COc2ccc(Nc3ncc(C(F)(F)F)c(NCC4CCNCC4)n3)cc2)COC1`, the pIC50 in [1] was 7.49; in data set [6] it was 7.39.

On to `CC1(COc2cccc(Nc3ncc(C(F)(F)F)c(NCC4CCNCC4)n3)c2)COC1`, for which the pIC50 in data set [1] is 7.96; in [6] it was 7.65; in the data set with MV4-11 (mv4-11), 8.16.

As to `CC1(COc2ccc(Nc3ncc(C(F)(F)F)c(N[C@H]4CC[C@H](N)CC4)n3)cc2)COC1`, the pIC50 in [1] was 7.52; in data set [6], 7.56; in the data set on MV4-11 (mv4-11), 7.58.

Turning to `CCc1nc(C(N)=O)c(Nc2ccc(N3CCC(N4CCN(C)CC4)CC3)c(OC)c2)nc1NC1CCOCC1` [GILTERITINIB], the pIC50 in the data set with BaF3 [2] (Mus musculus, BaF3) was 9.18; in the data set on HeLa (Homo sapiens, HeLa), 5.49; in the data set on MCF7 (Homo sapiens, MCF7), 5.89; with BaF3 [3] (Mus musculus, BaF3), 8.98; with MM1.S (Homo sapiens, MM1.S) it was 6.69; in the data set with BaF3 [4] (Mus musculus, BaF3) it was 9.32. In addition, the pIC50 in the data set with BaF3 [5] (Mus musculus, BaF3) is 9.22; in the data set with MV4-11 (Homo sapiens, MV4-11), 8.87; in the data set with BaF3 [7] (Mus musculus, BaF3), 9.21; in data set [8] it was 5.15.
